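Values below derive from 48-hour exposures of cells grown in 96-well plates, with endpoints linearly interpolated between the two concentrations bracketing the appropriate inhibition level. At the GI50, growth is halved.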 Activity calls are given as the source filed them. Cut-off read from the data, not from the text of the source: active = GI50 up to about 1.1 µM and inactive = higher.
Key:
Experiment in all cases: inhibition of tumour cell growth, NCI panel, 48 h
OVCAR-5 = tested on: OVCAR-5
MOLT-4 = tested on: MOLT-4
NCI/ADR-RES = tested on: NCI/ADR-RES
MDA-MB-231 = tested on: MDA-MB-231
CCRF-CEM = tested on: CCRF-CEM
MCF7 = tested on: MCF7
UACC-257 = tested on: UACC-257
SNB-75 = tested on: SNB-75
HCT-15 = tested on: HCT-15
K562 = tested on: K562
HOP-92 = tested on: HOP-92
EKVX = tested on: EKVX
M14 = tested on: M14
COLO 205 = tested on: COLO 205
PC-3 = tested on: PC-3
HL-60 = tested on: HL-60
DU-145 = tested on: DU-145
A498 = tested on: A498
T47D = tested on: T47D

SMILES	GI50 (OVCAR-5)	GI50 (MOLT-4)	GI50 (NCI/ADR-RES)	GI50 (MDA-MB-231)	GI50 (CCRF-CEM)	GI50 (MCF7)	GI50 (UACC-257)	GI50 (SNB-75)	GI50 (HCT-15) [µM]	GI50 (K562)	GI50 (HOP-92)	GI50 (EKVX)	GI50 (M14)	GI50 (COLO 205)	GI50 (PC-3)	GI50 (HL-60)	GI50 (DU-145)	GI50 (A498)	GI50 (T47D)
O=C(CN(C(=O)OC12CC3CC(CC(C3)C1)C2)C(=O)OC12CC3CC(CC(C3)C1)C2)Oc1ccc([N+](=O)[O-])cc1	> 100 µM (inactive)	4.2 µM (inactive)	85.3 µM (inactive)	76.2 µM (inactive)	30.5 µM (inactive)	> 100 µM (inactive)	> 100 µM (inactive)	> 100 µM (inactive)	> 100	58.1 µM (inactive)	> 100 µM (inactive)	> 100 µM (inactive)	> 100 µM (inactive)	> 100 µM (inactive)	16.1 µM (inactive)	–	–	–	–
CC1(C)CC2(C)CC1CC2O (centres undefined)	> 100 µM (inactive)	> 100 µM (inactive)	> 100 µM (inactive)	> 100 µM (inactive)	> 100 µM (inactive)	> 100 µM (inactive)	> 100 µM (inactive)	> 100 µM (inactive)	> 100	> 100 µM (inactive)	–	> 100 µM (inactive)	> 100 µM (inactive)	> 100 µM (inactive)	> 100 µM (inactive)	> 100 µM (inactive)	> 100 µM (inactive)	–	–
CCCCOC(=O)C(=O)C(CC(C(=O)Cc1ccccc1)c1ccccc1)C(=O)C=C(C)C (centres undefined)	> 100 µM (inactive)	83.9 µM (inactive)	> 100 µM (inactive)	> 100 µM (inactive)	76.6 µM (inactive)	> 100 µM (inactive)	> 100 µM (inactive)	> 100 µM (inactive)	> 100	–	> 100 µM (inactive)	> 100 µM (inactive)	> 100 µM (inactive)	> 100 µM (inactive)	> 100 µM (inactive)	50.1 µM (inactive)	> 100 µM (inactive)	–	–
C/C(=N/NC(=S)N(C)C)c1ccccc1O	17.4 µM (inactive)	20.5 µM (inactive)	3.53 µM (inactive)	35.8 µM (inactive)	2.88 µM (inactive)	–	17.1 µM (inactive)	6.82 µM (inactive)	3.28	19.1 µM (inactive)	> 75.2 µM (inactive)	29.1 µM (inactive)	7.35 µM (inactive)	13.7 µM (inactive)	10.1 µM (inactive)	> 22.5 µM (inactive)	18.9 µM (inactive)	36.1 µM (inactive)	14.5 µM (inactive)
O=C(c1ccc(Cl)cc1Cl)N(C(=O)N1CCC(c2ccccc2)CC1)c1ccccc1	> 100 µM (inactive)	17.8 µM (inactive)	> 100 µM (inactive)	–	13.8 µM (inactive)	72.4 µM (inactive)	63.8 µM (inactive)	> 100 µM (inactive)	> 100	34.4 µM (inactive)	> 100 µM (inactive)	86.9 µM (inactive)	> 100 µM (inactive)	43.3 µM (inactive)	91.2 µM (inactive)	–	> 100 µM (inactive)	97.7 µM (inactive)	53.7 µM (inactive)
Cc1ccc(/N=N/N(C)C(=O)C(C)N)cc1 (centres undefined)	> 100 µM (inactive)	> 100 µM (inactive)	> 100 µM (inactive)	–	> 100 µM (inactive)	> 100 µM (inactive)	> 100 µM (inactive)	> 100 µM (inactive)	> 100	> 100 µM (inactive)	> 100 µM (inactive)	> 100 µM (inactive)	> 100 µM (inactive)	> 100 µM (inactive)	> 100 µM (inactive)	> 100 µM (inactive)	> 100 µM (inactive)	–	> 100 µM (inactive)
CCCN(CCC)C(=S)N/N=C/c1cccc(C)n1	< 0.01 µM (active)	< 0.01 µM (active)	< 0.01 µM (active)	< 0.01 µM (active)	< 0.01 µM (active)	< 0.01 µM (active)	< 0.01 µM (active)	0.261 µM (active)	0.0438	< 0.01 µM (active)	0.391 µM (active)	0.552 µM (active)	< 0.01 µM (active)	< 0.01 µM (active)	0.0773 µM (active)	< 0.01 µM (active)	0.321 µM (active)	0.233 µM (active)	–
N#CSC#Cc1ccc(C#CSC#N)cc1	19.2 µM (inactive)	36.2 µM (inactive)	19.2 µM (inactive)	17.8 µM (inactive)	10.1 µM (inactive)	19.9 µM (inactive)	17.3 µM (inactive)	–	19.4	39.1 µM (inactive)	12.5 µM (inactive)	18.5 µM (inactive)	–	18.2 µM (inactive)	15.6 µM (inactive)	54.8 µM (inactive)	15.1 µM (inactive)	20.2 µM (inactive)	–
O=c1o[nH]/c(=N/c2ccccc2)n1-c1ccccc1	> 100 µM (inactive)	> 100 µM (inactive)	> 100 µM (inactive)	> 100 µM (inactive)	> 100 µM (inactive)	> 100 µM (inactive)	> 100 µM (inactive)	> 100 µM (inactive)	> 100	> 100 µM (inactive)	> 100 µM (inactive)	> 100 µM (inactive)	> 100 µM (inactive)	> 100 µM (inactive)	> 100 µM (inactive)	> 100 µM (inactive)	–	> 100 µM (inactive)	–
CC(=O)N1C=Cc2c(c(C)c3c([nH]c4ccccc43)c2C)C1	9.25 µM (inactive)	13.1 µM (inactive)	2.5 µM (inactive)	3.2 µM (inactive)	12.8 µM (inactive)	2.72 µM (inactive)	15.1 µM (inactive)	–	2.1	> 100 µM (inactive)	5.4 µM (inactive)	0.479 µM (active)	7.28 µM (inactive)	2.4 µM (inactive)	4.95 µM (inactive)	23.1 µM (inactive)	11.5 µM (inactive)	14.8 µM (inactive)	–
COC(=O)CCC(NC(=S)N/N=C(\C)c1cnc2ccccc2n1)C(=O)OC (centres undefined)	16.3 µM (inactive)	15.6 µM (inactive)	–	–	3.29 µM (inactive)	–	49.5 µM (inactive)	47.4 µM (inactive)	35.1	10.1 µM (inactive)	–	12.6 µM (inactive)	30.8 µM (inactive)	2.55 µM (inactive)	–	2.33 µM (inactive)	–	92.9 µM (inactive)	–
COc1ccccc1/C=C1/Sc2scc(CC(=O)Nc3ccccc3)[n+]2C1=O	47 µM (inactive)	17.2 µM (inactive)	19.8 µM (inactive)	23 µM (inactive)	17.7 µM (inactive)	31.4 µM (inactive)	25.1 µM (inactive)	26.9 µM (inactive)	26.6	–	17 µM (inactive)	30.9 µM (inactive)	28.4 µM (inactive)	20.4 µM (inactive)	26 µM (inactive)	15 µM (inactive)	27.7 µM (inactive)	–	–
CC1(C)C(OC(=O)c2ccccc2)C[C@]23CCC[C@](C)(C[C@@H](O)C12)C3 (some centres undefined)	15.3 µM (inactive)	10.5 µM (inactive)	14.5 µM (inactive)	–	11.7 µM (inactive)	16.4 µM (inactive)	20.4 µM (inactive)	18.9 µM (inactive)	18.4	13.5 µM (inactive)	16 µM (inactive)	19.9 µM (inactive)	19.9 µM (inactive)	17.5 µM (inactive)	11.5 µM (inactive)	31.5 µM (inactive)	21.2 µM (inactive)	–	19.9 µM (inactive)
N=C(N)N/N=C\c1c(-c2ccccc2)nc2sccn12	16.9 µM (inactive)	18.5 µM (inactive)	18.2 µM (inactive)	12.7 µM (inactive)	21.6 µM (inactive)	–	13.4 µM (inactive)	12.2 µM (inactive)	15.7	17.3 µM (inactive)	14.1 µM (inactive)	14.5 µM (inactive)	–	12 µM (inactive)	15.1 µM (inactive)	25.8 µM (inactive)	19 µM (inactive)	19.5 µM (inactive)	14.3 µM (inactive)
CCOP(=O)(OCC)C1(O)CC(n2cc(C)c(=O)[nH]c2=O)OC1CO (centres undefined)	> 100 µM (inactive)	–	> 100 µM (inactive)	–	–	> 100 µM (inactive)	> 100 µM (inactive)	> 100 µM (inactive)	> 100	> 100 µM (inactive)	> 100 µM (inactive)	> 100 µM (inactive)	> 100 µM (inactive)	> 100 µM (inactive)	> 100 µM (inactive)	> 100 µM (inactive)	> 100 µM (inactive)	> 100 µM (inactive)	> 100 µM (inactive)
COc1ccc(Nc2[nH]c(C(C)=O)c(N)c2C(=S)Nc2ccccc2)cc1	> 100 µM (inactive)	> 100 µM (inactive)	> 100 µM (inactive)	52 µM (inactive)	> 100 µM (inactive)	23.6 µM (inactive)	52.2 µM (inactive)	> 100 µM (inactive)	35.6	45.9 µM (inactive)	> 100 µM (inactive)	99.8 µM (inactive)	26.8 µM (inactive)	21.9 µM (inactive)	–	45.1 µM (inactive)	> 100 µM (inactive)	> 100 µM (inactive)	56.8 µM (inactive)
CCOC(=O)/C=C(/C(=O)OCC)n1cc(C)c(=O)n(Cc2cn(CCCCOC(C)=O)nn2)c1=O	18.1 µM (inactive)	5.05 µM (inactive)	23.6 µM (inactive)	27.6 µM (inactive)	0.363 µM (active)	6.3 µM (inactive)	19.8 µM (inactive)	16.3 µM (inactive)	4.76	4.14 µM (inactive)	1.21 µM (inactive)	10.7 µM (inactive)	–	3.55 µM (inactive)	19.7 µM (inactive)	–	34.4 µM (inactive)	–	9.46 µM (inactive)
